For one compound, IC50 and inhibition results are on record in patent US10011599B2 (priority 2013, dated 2018).

For orientation: IC50 means the midpoint of a concentration-inhibition curve. For orientation: inhibition means how much of the control response was suppressed.

The test system of one assay is A375 cells. Briefly: cells. Particulars: Homo sapiens, A-375, 72 h, read-out: A375 XTT IC50 uM.
Assay [1] relates to phospho-ERK1/2 in A375 cells. Briefly: cells. Particulars: Homo sapiens, A-375, 3 h, read-out: A375 ICW IC50.
Protocol: Human melanoma A375 cells were seeded at 50,000 cells per well in 100 μl growth medium in Costar 96 well black clear bottom plates and placed at 37° C./5% CO2 over night. Test compounds were diluted in DMSO to generate a concentration curve. A 5 mM stock was used for the highest concentration at 500 times; to yield a final concentration of 10 μM with 3-fold dilutions down to 0.0001 μM. 1 μl of diluted compound was added to 500 μl cell culture media and mixed well. Media was removed from cells and 200 μl of media containing compound was added. Cells were treated for 3 hrs with compound at 37° C., 5% CO2.
After the compound incubation, cells were washed once with PBS (Mg^++,Ca^++) and fixed in 4% paraformaldehyde/PBS for 1 hr at room temperature. Following fixation, cells were washed three times with PBS/0.1% TritonX-100(PBST), and then blocked with 5% skimmed milk/PBST, for 1-2 hr. 50 μL per well primary antibody was added (rabbit-anti-phospho-ERK1/2) at 1:500 in 5% skimmed milk/PBST and incubated overnight at 4° C. Cells were washed four times with 100 μl DELFIA wash buffer and 50 μL per well secondary antibody was added (DELFIA-EU-N1-labeled anti-rabbit antibody) at 1:3000 in DELFIA assay buffer and incubated for 2 hr at room temperature in the dark (covered). Cells were washed 4× with 100 μl DELFIA wash buffer. 50 μL per well Wallac-DELFIA enhancement solution was added. […]
The target of assay [2] is activated MAP kinase 2/ERK2 (Homo sapiens (Human), UniProt P28482). Briefly: biochemical.
Sequence of activated MAP kinase 2/ERK2 (P28482 whole entry, looked up): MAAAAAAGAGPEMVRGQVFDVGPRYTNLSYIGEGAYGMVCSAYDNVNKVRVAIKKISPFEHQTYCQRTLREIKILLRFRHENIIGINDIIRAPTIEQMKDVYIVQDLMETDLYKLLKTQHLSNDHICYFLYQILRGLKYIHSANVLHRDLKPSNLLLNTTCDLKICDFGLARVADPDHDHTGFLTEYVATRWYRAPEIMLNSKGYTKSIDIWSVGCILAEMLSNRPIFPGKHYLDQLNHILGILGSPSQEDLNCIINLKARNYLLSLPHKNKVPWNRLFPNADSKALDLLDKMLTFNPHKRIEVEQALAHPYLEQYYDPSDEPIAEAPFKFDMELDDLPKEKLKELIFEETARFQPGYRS
Assay [3] has as its target recombinant human activated BRAF (V599E) kinase (Homo sapiens (Human), UniProt P15056, V600E). Briefly: biochemical.

SMILES strings stand for the structures.

Sequence of recombinant human activated BRAF (V599E) kinase (P15056 417-766 V600E limits assumed): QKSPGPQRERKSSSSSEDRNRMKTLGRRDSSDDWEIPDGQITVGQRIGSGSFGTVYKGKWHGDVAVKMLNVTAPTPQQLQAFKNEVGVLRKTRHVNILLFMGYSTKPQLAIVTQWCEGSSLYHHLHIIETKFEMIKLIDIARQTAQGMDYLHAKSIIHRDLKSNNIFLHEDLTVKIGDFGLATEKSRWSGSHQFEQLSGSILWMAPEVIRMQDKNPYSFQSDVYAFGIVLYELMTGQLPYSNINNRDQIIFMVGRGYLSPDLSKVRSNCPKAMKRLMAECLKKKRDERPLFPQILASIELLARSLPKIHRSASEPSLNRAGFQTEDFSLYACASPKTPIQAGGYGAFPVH

Take `Cc1nc2cnc3cc(F)c(-c4ccc(Oc5ncccn5)cc4Cl)cc3c2n1[C@H]1CCN(C(=O)CO)C[C@@H]1F` [Example 1A, 1-((3S,4S)-4-(8-(2-chloro-4-(pyrimidin-2-yloxy)phenyl)-7-fluoro-2-methyl-1H-imidazo[4,5-c]quinolin-1-yl)-3-fluoropiperidin-1-yl)-2-hydroxyethanone]: the figures for the IC50 (in the assay with A375 cells; in assay [1]) were 0.003 µM and 3.9 nM, respectively. The inhibition at 10 µM in assay [2] came to 55%; in assay [3], 0%.
